In PubChem BioAssay (NCI):
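Results reflect a 48-hour exposure of cells in 96-well plates to compound at five concentrations. GI50: concentration for 50% inhibition of growth. The concentration for full growth arrest is given as TGI.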

Legend:
Assay in all cases: inhibition of tumour cell growth, NCI panel, 48 h
SK-OV-3 ovarian = tested on: SK-OV-3 ovarian
OVCAR-3 ovarian = tested on: OVCAR-3 ovarian
SK-MEL-5 melanoma = tested on: SK-MEL-5 melanoma
COLO 205 colon = tested on: COLO 205 colon
T-47D breast = tested on: T-47D breast
HCT-116 colon = tested on: HCT-116 colon
SR leukemia = tested on: SR leukemia
MDA-MB-435 = tested on: MDA-MB-435
LOX IMVI melanoma = tested on: LOX IMVI melanoma
BT-549 breast = tested on: BT-549 breast
HCC-2998 colon = tested on: HCC-2998 colon
SK-MEL-2 melanoma = tested on: SK-MEL-2 melanoma
HT29 colon = tested on: HT29 colon
NCI-H460 lung = tested on: NCI-H460 lung
NCI/ADR-RES ovarian = tested on: NCI/ADR-RES ovarian
UACC-62 melanoma = tested on: UACC-62 melanoma
ACHN renal = tested on: ACHN renal
DU-145 prostate = tested on: DU-145 prostate
RPMI-8226 leukemia = tested on: RPMI-8226 leukemia
SW-620 colon = tested on: SW-620 colon
NCI-H23 lung = tested on: NCI-H23 lung
UACC-257 melanoma = tested on: UACC-257 melanoma
SF-268 CNS = tested on: SF-268 CNS
U251 CNS = tested on: U251 CNS
KM12 colon = tested on: KM12 colon
HCT-15 colon = tested on: HCT-15 colon
CCRF-CEM leukemia = tested on: CCRF-CEM leukemia
SF-539 CNS = tested on: SF-539 CNS
RXF 393 renal = tested on: RXF 393 renal
CAKI-1 renal = tested on: CAKI-1 renal
TK-10 renal = tested on: TK-10 renal
OVCAR-5 ovarian = tested on: OVCAR-5 ovarian
786-0 renal = tested on: 786-0 renal
SNB-75 CNS = tested on: SNB-75 CNS
MDA-MB-231 breast = tested on: MDA-MB-231 breast
K-562 leukemia = tested on: K-562 leukemia
EKVX NSCLC = tested on: EKVX NSCLC
A549 NSCLC = tested on: A549 NSCLC
HOP-62 NSCLC = tested on: HOP-62 NSCLC
UO-31 renal = tested on: UO-31 renal
HS 578T breast = tested on: HS 578T breast
SN12C renal = tested on: SN12C renal
IGROV1 ovarian = tested on: IGROV1 ovarian
M14 melanoma = tested on: M14 melanoma
A498 renal = tested on: A498 renal
MALME-3M melanoma = tested on: MALME-3M melanoma
MCF7 breast = tested on: MCF7 breast
SF-295 CNS = tested on: SF-295 CNS
SNB-19 CNS = tested on: SNB-19 CNS
SK-MEL-28 melanoma = tested on: SK-MEL-28 melanoma
OVCAR-8 ovarian = tested on: OVCAR-8 ovarian
NCI-H522 lung = tested on: NCI-H522 lung
PC-3 prostate = tested on: PC-3 prostate
HL-60(TB) leukemia = tested on: HL-60(TB) leukemia
NCI-H226 lung = tested on: NCI-H226 lung
MOLT-4 leukemia = tested on: MOLT-4 leukemia
OVCAR-4 ovarian = tested on: OVCAR-4 ovarian
HOP-92 NSCLC = tested on: HOP-92 NSCLC

CN1CCN(CCCOc2cccc3nc(Nc4ccc(F)c(F)c4)ccc23)CC1
GI50 (SK-OV-3 ovarian): 4.39 µM
TGI (SK-OV-3 ovarian): 8.87 µM
GI50 (OVCAR-3 ovarian): 4.58 µM
TGI (OVCAR-3 ovarian): 9.51 µM
GI50 (SK-MEL-5 melanoma): 4.44 µM
TGI (SK-MEL-5 melanoma): 8.69 µM
GI50 (COLO 205 colon): 0.646 µM
TGI (COLO 205 colon): 1.33 µM
GI50 (T-47D breast): 3.39 µM
TGI (T-47D breast): 9.26 µM
GI50 (HCT-116 colon): 3.8 µM
TGI (HCT-116 colon): 7.87 µM
GI50 (SR leukemia): 0.87 µM
TGI (SR leukemia): 4.07 µM
GI50 (MDA-MB-435): 1.27 µM
TGI (MDA-MB-435): 5.14 µM
GI50 (LOX IMVI melanoma): 1.03 µM
TGI (LOX IMVI melanoma): 3.36 µM
GI50 (BT-549 breast): 4.34 µM
TGI (BT-549 breast): 8.85 µM
GI50 (HCC-2998 colon): 4.56 µM
TGI (HCC-2998 colon): 9.08 µM
GI50 (SK-MEL-2 melanoma): 3.95 µM
TGI (SK-MEL-2 melanoma): 8.62 µM
GI50 (HT29 colon): 0.616 µM
TGI (HT29 colon): 1.35 µM
GI50 (NCI-H460 lung): 2.37 µM
TGI (NCI-H460 lung): 8.9 µM
GI50 (NCI/ADR-RES ovarian): 5.16 µM
TGI (NCI/ADR-RES ovarian): 10.5 µM
GI50 (UACC-62 melanoma): 0.695 µM
TGI (UACC-62 melanoma): 1.6 µM
GI50 (ACHN renal): 4.57 µM
TGI (ACHN renal): 9.17 µM
GI50 (DU-145 prostate): 4.32 µM
TGI (DU-145 prostate): 8.67 µM
GI50 (RPMI-8226 leukemia): 5.2 µM
TGI (RPMI-8226 leukemia): 12.3 µM
GI50 (SW-620 colon): 1.82 µM
TGI (SW-620 colon): 10.5 µM
GI50 (NCI-H23 lung): 4.67 µM
TGI (NCI-H23 lung): 9.29 µM
GI50 (UACC-257 melanoma): 0.655 µM
TGI (UACC-257 melanoma): 1.39 µM
GI50 (SF-268 CNS): 4.46 µM
TGI (SF-268 CNS): 9.74 µM
GI50 (U251 CNS): 2.68 µM
TGI (U251 CNS): 7.2 µM
GI50 (KM12 colon): 2.35 µM
TGI (KM12 colon): 7.78 µM
GI50 (HCT-15 colon): 0.956 µM
TGI (HCT-15 colon): 3.42 µM
GI50 (CCRF-CEM leukemia): 2.42 µM
TGI (CCRF-CEM leukemia): 8.06 µM
GI50 (SF-539 CNS): 4.03 µM
TGI (SF-539 CNS): 8.56 µM
GI50 (RXF 393 renal): 2.11 µM
TGI (RXF 393 renal): 6.57 µM
GI50 (CAKI-1 renal): 4.45 µM
TGI (CAKI-1 renal): 9.35 µM
GI50 (TK-10 renal): 2.63 µM
TGI (TK-10 renal): 6.94 µM
GI50 (OVCAR-5 ovarian): 4.71 µM
TGI (OVCAR-5 ovarian): 9.73 µM
GI50 (786-0 renal): 4.66 µM
TGI (786-0 renal): 9.25 µM
GI50 (SNB-75 CNS): 3.92 µM
TGI (SNB-75 CNS): 9.5 µM
GI50 (MDA-MB-231 breast): 0.937 µM
TGI (MDA-MB-231 breast): 3.38 µM
GI50 (K-562 leukemia): 0.662 µM
TGI (K-562 leukemia): 1.49 µM
GI50 (EKVX NSCLC): 4.83 µM
TGI (EKVX NSCLC): 9.41 µM
GI50 (A549 NSCLC): 3.5 µM
TGI (A549 NSCLC): 8.15 µM
GI50 (HOP-62 NSCLC): 1.25 µM
TGI (HOP-62 NSCLC): 5.34 µM
GI50 (UO-31 renal): 4.34 µM
TGI (UO-31 renal): 9.01 µM
GI50 (HS 578T breast): 4.73 µM
TGI (HS 578T breast): 11.8 µM
GI50 (SN12C renal): 4.87 µM
TGI (SN12C renal): 9.93 µM
GI50 (IGROV1 ovarian): 5.55 µM
TGI (IGROV1 ovarian): 11.4 µM
GI50 (M14 melanoma): 0.68 µM
TGI (M14 melanoma): 1.49 µM
GI50 (A498 renal): 5.65 µM
TGI (A498 renal): 11.6 µM
GI50 (MALME-3M melanoma): 1.44 µM
TGI (MALME-3M melanoma): 6.05 µM
GI50 (MCF7 breast): 3.33 µM
TGI (MCF7 breast): 7.88 µM
GI50 (SF-295 CNS): 4.64 µM
TGI (SF-295 CNS): 9.3 µM
GI50 (SNB-19 CNS): 4.89 µM
TGI (SNB-19 CNS): 10.2 µM
GI50 (SK-MEL-28 melanoma): 1.08 µM
TGI (SK-MEL-28 melanoma): 3.63 µM
GI50 (OVCAR-8 ovarian): 5.13 µM
TGI (OVCAR-8 ovarian): 10.2 µM
GI50 (NCI-H522 lung): 1.01 µM
TGI (NCI-H522 lung): 3.69 µM
GI50 (PC-3 prostate): 3.83 µM
TGI (PC-3 prostate): 8.43 µM
GI50 (HL-60(TB) leukemia): 5.18 µM
TGI (HL-60(TB) leukemia): 11 µM
GI50 (NCI-H226 lung): 5.51 µM
TGI (NCI-H226 lung): 11.1 µM
GI50 (MOLT-4 leukemia): 1.31 µM
TGI (MOLT-4 leukemia): 5.66 µM
GI50 (OVCAR-4 ovarian): 6.42 µM
TGI (OVCAR-4 ovarian): 15.2 µM
GI50 (HOP-92 NSCLC): 1.43 µM
TGI (HOP-92 NSCLC): 5.74 µM
